Source: the supplement of paper PMC10307832

Columns and labels:
Test in all cases: relative viability (nuclei count vs DMSO), 5 days (fraction); higher = more cells survive
Bortezomib + Palbociclib = compound: CC(C)C[C@H](NC(=O)[C@H](Cc1ccccc1)NC(=O)c1cnccn1)B(O)O [Bortezomib] + CC(=O)c1c(C)c2cnc(Nc3ccc(N4CCNCC4)cn3)nc2n(C2CCCC2)c1=O [Palbociclib] (partner 0.5 µM)
Method in brief: (§1)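 Lung cancer cell lines in 1536-well plates were dosed by pin tool the day after seeding, either with one drug alone or with a fixed anchor-drug dose plus five library-drug doses (not always all listed) in √10 steps. After 5 days, cells were fixed and their nuclei stained in one step (final 0.05% Triton X-100, 1% formaldehyde, 1 ug/ml Hoechst), then counted on 4× images. Relative viability is the nuclei count in treated wells divided by that in vehicle wells. Values are medians of duplicate plates.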

Bortezomib + Vorinostat = compound: CC(C)C[C@H](NC(=O)[C@H](Cc1ccccc1)NC(=O)c1cnccn1)B(O)O [Bortezomib] + O=C(CCCCCCC(=O)Nc1ccccc1)NO [Vorinostat] (partner 1 µM)
Method in brief: as §1

Obatoclax + Phenformin = compound: COC1=CC(c2cc3ccccc3[nH]2)=N/C1=C\c1[nH]c(C)cc1C [Obatoclax] + N=C(N)NC(=N)NCCc1ccccc1 [Phenformin] (partner 250 µM)
Method in brief: as §1

Obatoclax + Olaparib = compound: COC1=CC(c2cc3ccccc3[nH]2)=N/C1=C\c1[nH]c(C)cc1C [Obatoclax] + O=C(c1cc(Cc2n[nH]c(=O)c3ccccc23)ccc1F)N1CCN(C(=O)C2CC2)CC1 [Olaparib] (partner 8 µM)
Method in brief: as §1

Row | Cell Line | relative viability (Bortezomib + Palbociclib; first compound 0.0002 µM) | relative viability (Bortezomib + Palbociclib; first compound 0.000632 µM) | relative viability (Bortezomib + Palbociclib; first compound 0.002 µM) | relative viability (Bortezomib + Palbociclib; first compound 0.006325 µM) | relative viability (Bortezomib + Palbociclib; first compound 0.02 µM) | relative viability (Bortezomib + Vorinostat; first compound 0.0002 µM) | relative viability (Bortezomib + Vorinostat; first compound 0.000632 µM) | relative viability (Bortezomib + Vorinostat; first compound 0.002 µM) | relative viability (Bortezomib + Vorinostat; first compound 0.006325 µM) | relative viability (Bortezomib + Vorinostat; first compound 0.02 µM) | relative viability (Obatoclax + Phenformin; first compound 0.01 µM) | relative viability (Obatoclax + Phenformin; first compound 0.03162 µM) | relative viability (Obatoclax + Phenformin; first compound 0.1 µM) | relative viability (Obatoclax + Phenformin; first compound 0.3162 µM) | relative viability (Obatoclax + Phenformin; first compound 1 µM) | relative viability (Obatoclax + Olaparib; first compound 0.01 µM) | relative viability (Obatoclax + Olaparib; first compound 0.03162 µM) | relative viability (Obatoclax + Olaparib; first compound 0.1 µM) | relative viability (Obatoclax + Olaparib; first compound 0.3162 µM) | relative viability (Obatoclax + Olaparib; first compound 1 µM)
1 | 201T | 0.339 | 0.367 | 0.37 | 0.33 | 0.218 | 0.964 | 0.936 | 0.993 | 0.916 | 0.328 | 0.434 | 0.457 | 0.43 | 0.399 | 0.463 | 0.873 | 0.782 | 0.838 | 0.823 | 0.831
2 | A549 |  |  |  |  |  |  |  |  |  |  | 0.131 | 0.248 | 0.035 | 0.222 | 0.0807 | 0.326 | 0.367 | 0.0867 | 0.361 | 0.342
3 | A-427 | 0.508 | 0.469 | 0.53 | 0.272 | 0.169 | 0.845 | 0.878 | 0.833 | 0.185 | 0.153 | 0.339 | 0.342 | 0.32 | 0.287 | 0.165 | 0.82 | 0.706 | 0.559 | 0.775 | 0.416
4 | ABC-1 | 0.619 | 0.709 | 0.269 | 0.229 | 0.328 | 0.689 | 0.415 | 0.288 | 0.29 | 0.312 | 0.226 | 0.215 | 0.291 | 0.22 | 0.297 | 1.08 | 0.95 | 0.776 | 0.799 | 0.566
5 | BEN | 0.443 | 0.461 | 0.489 | 0.445 | 0.236 | 0.559 | 0.586 | 0.558 | 0.509 | 0.317 | 0.287 | 0.224 |  | 0.286 | 0.277 | 1.03 | 1.04 | 0.864 | 0.914 | 0.942
6 | CAL-12T | 0.561 | 0.447 | 0.384 | 0.182 | 0.104 | 0.781 | 0.922 | 0.691 | 0.281 | 0.0995 | 0.552 | 0.612 | 0.538 | 0.155 | 0.102 | 0.759 | 0.764 | 0.724 | 0.679 | 0.232
7 | COR-L23 | 0.308 | 0.274 | 0.183 | 0.0534 | 0.0546 | 0.474 | 0.446 | 0.192 | 0.0554 | 0.0587 | 0.443 | 0.479 | 0.425 | 0.328 | 0.216 | 0.37 | 0.352 | 0.354 | 0.248 | 0.156
8 | COR-L 105 | 0.439 | 0.381 | 0.345 | 0.378 | 0.355 | 0.846 | 0.306 | 0.824 | 0.276 | 0.271 | 0.4 | 0.53 | 0.637 | 0.333 | 0.266 | 0.727 | 0.76 | 0.737 | 0.672 | 0.457
9 | Calu-6 |  |  |  |  |  |  |  |  |  |  |  |  |  |  |  | 0.538 | 0.565 | 0.611 | 0.534 | 0.239
10 | ChaGo-K-1 | 0.956 | 0.903 | 0.942 | 0.382 | 0.136 | 0.709 | 0.753 | 0.827 | 0.441 | 0.162 | 0.511 | 0.506 | 0.444 | 0.462 | 0.527 | 0.4 | 0.439 | 0.391 | 0.382 | 0.41
11 | EBC-1 |  |  |  |  |  |  |  |  |  |  |  |  |  |  |  | 0.632 | 0.765 | 0.642 | 0.583 | 0.269
12 | EKVX | 0.361 | 0.401 | 0.28 | 0.171 | 0.079 | 0.68 | 0.805 | 0.65 | 0.518 | 0.198 | 0.257 | 0.218 | 0.141 | 0.232 | 0.231 | 0.842 |  | 0.966 | 0.888 | 0.648
13 | EMC-BAC-2 | 0.524 | 0.484 | 0.466 | 0.285 | 0.205 | 0.402 | 0.467 | 0.409 | 0.155 | 0.143 | 0.478 | 0.526 | 0.398 | 0.466 | 0.371 | 0.491 | 0.514 | 0.418 | 0.478 | 0.43
14 | EPLC-272H | 0.307 | 0.29 | 0.304 | 0.111 | 0.0584 | 0.333 | 0.4 | 0.0774 | 0.0603 | 0.0567 | 0.255 | 0.277 | 0.351 | 0.225 | 0.158 | 0.796 | 0.889 | 0.756 | 0.263 | 0.215
15 | H3255 | 0.322 | 0.335 | 0.285 | 0.256 | 0.243 | 0.811 | 0.827 | 0.748 | 0.253 | 0.244 | 0.306 | 0.377 | 0.372 | 0.335 | 0.42 | 0.537 | 0.608 | 0.541 | 0.557 | 0.546
